ChEMBL document CHEMBL1201862, “PubChem BioAssay data set” (2004)
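Following 48 hours of exposure in 96-well plates, responses at five concentrations were used to interpolate endpoints linearly. GI50 marks 50% less growth.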 Activity calls are given as the source filed them. Cut-off read from the data, not from the text of the source: active = GI50 up to about 1.1 µM and inactive = higher.

Experiments:
Test in all cases: NCI tumour cell line growth inhibition, 48 h
SK-OV-3 = tested on: SK-OV-3
HCT-15 = tested on: HCT-15
T47D = tested on: T47D
PC-3 = tested on: PC-3
NCI-H460 = tested on: NCI-H460
ACHN = tested on: ACHN
SF-539 = tested on: SF-539
RXF 393 = tested on: RXF 393
NCI-H23 = tested on: NCI-H23
NCI/ADR-RES = tested on: NCI/ADR-RES
SF-268 = tested on: SF-268
SW-620 = tested on: SW-620
HOP-92 = tested on: HOP-92
TK-10 = tested on: TK-10
U-251 = tested on: U-251
KM12 = tested on: KM12
MCF7 = tested on: MCF7
DU-145 = tested on: DU-145
OVCAR-8 = tested on: OVCAR-8

| SMILES | GI50 (SK-OV-3) | GI50 (HCT-15) | GI50 (T47D) | GI50 (PC-3) | GI50 (NCI-H460) | GI50 (ACHN) | GI50 (SF-539) | GI50 (RXF 393) | GI50 (NCI-H23) | GI50 (NCI/ADR-RES) | GI50 (SF-268) | GI50 (SW-620) | GI50 (HOP-92) | GI50 (TK-10) | GI50 (U-251) | GI50 (KM12) | GI50 (MCF7) | GI50 (DU-145) | GI50 (OVCAR-8) |
| --- | --- | --- | --- | --- | --- | --- | --- | --- | --- | --- | --- | --- | --- | --- | --- | --- | --- | --- | --- |
| CC(=O)Oc1cccc2c1C(=O)c1c(OC(C)=O)cc(C)cc1C2=O | 34 µM (inactive) | 40.6 µM | 32.4 µM (inactive) | 26.1 µM (inactive) | 26.1 µM (inactive) | 78.3 µM (inactive) | 26.3 µM (inactive) | 28.2 µM (inactive) | 50.9 µM (inactive) | 21.1 µM (inactive) | 62.8 µM (inactive) | 37 µM (inactive) | 70.6 µM (inactive) | > 100 µM (inactive) | 30.2 µM (inactive) | 39.5 µM (inactive) | 46 µM (inactive) | 56.6 µM (inactive) | 39.8 µM (inactive) |
| O=C(c1c(F)c(F)c(F)c(F)c1F)n1c(O)nc2ccccc21 | 15.4 µM (inactive) | 5.06 µM | 3.94 µM (inactive) | 7.93 µM (inactive) | 12.8 µM (inactive) | 16.1 µM (inactive) | 13.6 µM (inactive) | 8.59 µM (inactive) | 4.88 µM (inactive) | 22 µM (inactive) | 14.7 µM (inactive) | 4.91 µM (inactive) | 2.88 µM (inactive) | 5.19 µM (inactive) | 12.5 µM (inactive) | 1.54 µM (inactive) | 4.04 µM (inactive) | 15.7 µM (inactive) | 13.2 µM (inactive) |
| O=C(/C=C/c1ccccc1O)CC(=O)/C=C/c1ccccc1O | > 10 µM (inactive) | 3.64 µM | 5.45 µM (inactive) | 5.28 µM (inactive) | 7.45 µM (inactive) | 5.92 µM (inactive) | 5.9 µM (inactive) | 3.25 µM (inactive) | 2.81 µM (inactive) | 5.01 µM (inactive) | > 10 µM (inactive) | 4.51 µM (inactive) | 5.81 µM (inactive) | 23.7 µM (inactive) | 4.26 µM (inactive) | 6.4 µM (inactive) | 4.14 µM (inactive) | 14.5 µM (inactive) | 4.41 µM (inactive) |
| Clc1ccc2oc(CCC3CCCCC3)nc2c1 | 26.1 µM (inactive) | 24.7 µM | 20.5 µM (inactive) | 33 µM (inactive) | 24.9 µM (inactive) | 40.6 µM (inactive) | 32.1 µM (inactive) | 15.1 µM (inactive) | 29.9 µM (inactive) | 30.3 µM (inactive) | 64.7 µM (inactive) | 31.8 µM (inactive) | 35.2 µM (inactive) | 26.4 µM (inactive) | 19.3 µM (inactive) | 26.4 µM (inactive) | 26.1 µM (inactive) | 34.3 µM (inactive) | 44.1 µM (inactive) |
| C[C@@H]1C[C@H]2CC[C@H](O2)[C@H](C)C(=O)O[C@@H](C)C[C@@H]2CC[C@@H](O2)[C@@H](C)C(=O)O[C@H](C)C[C@H]2CC[C@H](O2)[C@H](C)C(=O)O[C@@H](C)C[C@@H]2CC[C@@H](O2)[C@@H](C)C(=O)O1 | 0.2 µM (active) | 0.646 µM | 0.189 µM (active) | 0.218 µM (active) | 0.426 µM (active) | 0.212 µM (active) | 1.58 µM (inactive) | 0.356 µM (active) | 0.224 µM (active) | 2.17 µM (inactive) | 0.316 µM (active) | 0.349 µM (active) | 0.183 µM (active) | 0.425 µM (active) | 0.366 µM (active) | 0.256 µM (active) | 0.326 µM (active) | 1.43 µM (inactive) | 0.295 µM (active) |
| COc1cc([C@@H]2c3cc4c(cc3[C@@H](c3c(O)cc(O)c5c3O[C@H](c3ccc(O)c(O)c3)[C@H](OC(=O)c3cc(O)c(O)c(O)c3)C5)[C@H]3COC(=O)[C@H]23)OCO4)cc(OC)c1O | 44.1 µM (inactive) | 40.8 µM | > 100 µM (inactive) | 42.8 µM (inactive) | 32.5 µM (inactive) | 53.7 µM (inactive) | 24.1 µM (inactive) | 59.4 µM (inactive) | 69.2 µM (inactive) | 54.8 µM (inactive) | 30.8 µM (inactive) | 44.4 µM (inactive) | 58.2 µM (inactive) | 92.3 µM (inactive) | 46.5 µM (inactive) | 32 µM (inactive) | 42 µM (inactive) | 32 µM (inactive) | 35.6 µM (inactive) |
| CC[C@@]1(O)C(=O)OCc2c1cc1n(c2=O)Cc2c-1nc1ccccc1c2CC[Si](C)(C)C [COSITECAN] | < 0.01 µM (active) | 0.0789 µM | < 0.01 µM (active) | < 0.0389 µM (active) | < 0.01 µM (active) | < 0.01 µM (active) | < 0.01 µM (active) | < 0.01 µM (active) | < 0.01 µM (active) | < 0.01 µM (active) | < 0.01 µM (active) | 0.0101 µM (active) | 0.115 µM (active) | 0.131 µM (active) | < 0.01 µM (active) | 0.0367 µM (active) | < 0.01 µM (active) | < 0.01 µM (active) | < 0.01 µM (active) |
| CC(C)(C)c1cc(C(=O)/C=C/c2c(Cl)cccc2Cl)cc(C(C)(C)C)c1O | 53.5 µM (inactive) | 12.4 µM | 4.33 µM (inactive) | 11.4 µM (inactive) | 7.46 µM (inactive) | 14.7 µM (inactive) | 16.1 µM (inactive) | 2.05 µM (inactive) | 16.1 µM (inactive) | 20.1 µM (inactive) | 18.8 µM (inactive) | 13.3 µM (inactive) | 25.8 µM (inactive) | 19.4 µM (inactive) | 11.9 µM (inactive) | 13.1 µM (inactive) | 8.34 µM (inactive) | 23 µM (inactive) | 18.9 µM (inactive) |
| CSC1=NN(C(C)=O)C(C(OC(C)=O)C(OC(C)=O)C(OC(C)=O)C(COC(C)=O)OC(C)=O)S1 (stereo unspecified) | > 100 µM (inactive) | > 100 µM | > 100 µM (inactive) | > 100 µM (inactive) | > 100 µM (inactive) | > 100 µM (inactive) | > 100 µM (inactive) | > 100 µM (inactive) | > 100 µM (inactive) | > 100 µM (inactive) | > 100 µM (inactive) | > 100 µM (inactive) | > 100 µM (inactive) | > 100 µM (inactive) | > 100 µM (inactive) | > 100 µM (inactive) | > 100 µM (inactive) | > 100 µM (inactive) | > 100 µM (inactive) |
| NC(=O)c1nc[nH]c1/N=N/SCC(N)C(=O)O (stereo unspecified) | 2.88 µM (inactive) | 43.2 µM | > 60.5 µM (inactive) | 15.7 µM (inactive) | 12.7 µM (inactive) | 13 µM (inactive) | 17.6 µM (inactive) | > 100 µM (inactive) | > 78.9 µM (inactive) | 6.58 µM (inactive) | 10.7 µM (inactive) | 16.4 µM (inactive) | 15.7 µM (inactive) | 5.32 µM (inactive) | > 80.7 µM (inactive) | 14.2 µM (inactive) | 97.7 µM (inactive) | 5.11 µM (inactive) | 5.74 µM (inactive) |
| Cn1c2ccccc2n2c3ccccc3c(=O)c(C#N)c12 | 27.3 µM (inactive) | 6.62 µM | 17.6 µM (inactive) | 22.8 µM (inactive) | 3.23 µM (inactive) | 2.91 µM (inactive) | 13 µM (inactive) | 40.7 µM (inactive) | 8.24 µM (inactive) | 4.46 µM (inactive) | 10.4 µM (inactive) | 4.62 µM (inactive) | 15.3 µM (inactive) | > 55 µM (inactive) | 12 µM (inactive) | 12 µM (inactive) | 10.1 µM (inactive) | 12.6 µM (inactive) | 3.96 µM (inactive) |
| COc1cc(OC)cc(C(=O)CC(=O)c2cc(OC)cc(OC)c2)c1 | > 100 µM (inactive) | 68.9 µM | > 100 µM (inactive) | 94.4 µM (inactive) | 56.9 µM (inactive) | > 100 µM (inactive) | > 100 µM (inactive) | > 100 µM (inactive) | > 100 µM (inactive) | > 100 µM (inactive) | > 100 µM (inactive) | 95.1 µM (inactive) | > 100 µM (inactive) | > 100 µM (inactive) | > 100 µM (inactive) | > 100 µM (inactive) | > 100 µM (inactive) | > 100 µM (inactive) | > 100 µM (inactive) |
| COc1ccc2[nH]c3c(C)c4cnccc4c(C)c3c2c1 | > 10 µM (inactive) | 1.61 µM | > 10 µM (inactive) | 2.99 µM (inactive) | 1.78 µM (inactive) | 2.01 µM (inactive) | 1.88 µM (inactive) | 2.49 µM (inactive) | 6.25 µM (inactive) | 1.22 µM (inactive) | 2.75 µM (inactive) | 0.964 µM (active) | 5.4 µM (inactive) | 5.69 µM (inactive) | 1.72 µM (inactive) | 1.31 µM (inactive) | 1.52 µM (inactive) | 2.93 µM (inactive) | 1.01 µM (active) |
| CC(NC(=O)C(NC(=O)C(NC(=O)C(F)(F)F)C(C)C)C(C)C)C(=O)Oc1c(Cl)c(Cl)c(Cl)c(Cl)c1Cl (stereo unspecified) | > 100 µM (inactive) | > 100 µM | 83.4 µM (inactive) | > 100 µM (inactive) | > 100 µM (inactive) | > 100 µM (inactive) | > 100 µM (inactive) | > 100 µM (inactive) | > 100 µM (inactive) | > 100 µM (inactive) | > 100 µM (inactive) | > 100 µM (inactive) | 32.5 µM (inactive) | > 100 µM (inactive) | > 100 µM (inactive) | > 100 µM (inactive) | > 100 µM (inactive) | > 100 µM (inactive) | > 100 µM (inactive) |
